Key:
Assay type in all cases: in vivo
Settings in all cases: rated 30 days after application
Scirpus juncoides [1] = assay: Submersion test, treatment 3 days after transplantation: herbicidal effect
Procedure: (§1) A mixture consisting of 57 parts by weight of talc and 40 parts by weight of bentonite as carrier and 3 parts by weight of sodium alkylbenzenesulfonate as surfactant was pulverized and mixed uniformly to obtain a carrier for wettable powder. Each herbicidal composition was prepared by uniformly pulverizing and mixing 90 parts by weight of the carrier for wettable powder and 10 parts by weight of the benzothiophene derivative produced in each example.
(§2) Seeds of Scirpus juncoides were sowed onto paddy field soil in a Wagner pot of 1/2000 are. Then, rice seedlings of 2.5 leaf stage were transplanted in the soil. Water was pored into the pot so as to submerge the soil at a depth of 3 cm. The pot was placed in a greenhouse maintained at 20 to 25° C. for vegetation. After 3 days from transplantation of the rice seedlings, a predetermined amount of the herbicidal composition prepared in the step [1] was applied to the pot. After 30 days from the application of the herbicidal composition, the herbicidal effect and injury to the paddy rice were determined.
(§3) The herbicidal effect and the injury to crops in the above tests (1) and (2) were evaluated based on the following ratings.
(§4) The degree of weed control (%) was calculated from the weights of the above-ground parts of fresh weeds in the treated area and the untreated area using the following equation:
(§5) Degree of weed control (%)=[1−(weight of weeds in treated area)/(weight of weeds in untreated area)]×100
(§6) The herbicidal effect was determined according to the following ratings: […]

paddy rice = assay: Submersion test, treatment 3 days after transplantation: injury to paddy rice; set-up: key: 0: No injury; 1: Substantially no injury; 2: Slight injury; 3: Some injury; 4: Remarkable injury; 5: Almost all crops dead
Procedure: A mixture consisting of 57 parts by weight of talc and 40 parts by weight of bentonite as carrier and 3 parts by weight of sodium alkylbenzenesulfonate as surfactant was pulverized and mixed uniformly to obtain a carrier for wettable powder. […] Then, rice seedlings of 2.5 leaf stage were transplanted in the soil. Water was pored into the pot so as to submerge the soil at a depth of 3 cm. The pot was placed in a greenhouse maintained at 20 to 25° C. for vegetation. […] After 30 days from the application of the herbicidal composition, the herbicidal effect and injury to the paddy rice were determined. […] The injury to crops was evaluated according to the following ratings: [table]

Scirpus juncoides [2] = assay: Submersion test, treatment 10 days after transplantation: herbicidal effect
Procedure: as §1
as §2, with “vegetation. After 10 days from” for “vegetation. After 3 days from”
as §3, §4, §5, §6

SMILES	Herbicidal effect Scirpus juncoides (Scirpus juncoides [1]; application rate 100 g/ha)	Herbicidal effect Scirpus juncoides (Scirpus juncoides [1]; application rate 200 g/ha)	Injury paddy rice (paddy rice; application rate 100 g/ha)	Injury paddy rice (paddy rice; application rate 200 g/ha)	Herbicidal effect Scirpus juncoides (Scirpus juncoides [2]; application rate 100 g/ha)	Herbicidal effect Scirpus juncoides (Scirpus juncoides [2]; application rate 200 g/ha)
CO/N=C/CSC1Cc2c(ccc(C(=O)C3C(=O)CCCC3=O)c2Cl)S1(=O)=O (single isomer, unassigned) [Compound No. 8, 4-chloro-2-(2-methoxyiminoethyl)thio-5-(1,3-dioxocyclohex-2-yl)carbonyl-2,3-dihydrobenzothiophene 1,1-dioxide]	4 (70% or higher but less than 90%)	5 (90% or higher (almost completely dead))	0	0	5 (90% or higher (almost completely dead))	5 (90% or higher (almost completely dead))
C[S+]([O-])C1Cc2c(ccc(C(=O)C3=C(Cl)CCCC3=O)c2Cl)S1(=O)=O (single isomer, unassigned) [Compound No. 28, 4-chloro-2-methanesulfinyl-5-(3-chloro-1-oxo-2-cyclohexen-2-yl)carbonyl-2,3-dihydrobenzothiophene 1,1-dioxide]	5 (90% or higher (almost completely dead))	5 (90% or higher (almost completely dead))	0	0	5 (90% or higher (almost completely dead))	5 (90% or higher (almost completely dead))
CS(=O)(=O)c1ccc(C(=O)C2=C(Sc3ccccc3)C3CCC(C3)C2=O)c(Cl)c1 (stereo not drawn) [(B), reference compound]	3 (40% or higher but less than 70%)	4 (70% or higher but less than 90%)	0	0	2 (20% or higher but less than 40%)	3 (40% or higher but less than 70%)
CCSC1Cc2c(ccc(C(=O)C3C(=O)CCCC3=O)c2Cl)S1(=O)=O (stereo not drawn) [Compound No. 2, 4-chloro-2-ethylthio-5-(1,3-cdioxocyclohex-2-yl)carbonyl-2,3-cdihydrobenzothiophene 1,1-dioxide]	5 (90% or higher (almost completely dead))	5 (90% or higher (almost completely dead))	0	0	5 (90% or higher (almost completely dead))	5 (90% or higher (almost completely dead))
COCCSC1Cc2c(ccc(C(=O)C3C(=O)CCCC3=O)c2Cl)S1(=O)=O (stereo not drawn) [Compound No. 5, 4-chloro-2-(2-methoxyethyl)thio-5-(1,3-dioxocyclohex-2-yl)carbonyl-2,3-dihydrobenzothiophene 1,1-dioxide]	5 (90% or higher (almost completely dead))	5 (90% or higher (almost completely dead))	0	0	5 (90% or higher (almost completely dead))	5 (90% or higher (almost completely dead))
CS(=O)(=O)C1Cc2c(ccc(C(=O)C3C(=O)CCCC3=O)c2Cl)S1(=O)=O (stereo not drawn) [Compound No. 15, 4-chloro-2-methanesulfonyl-5-(1,3-dioxocyclohex-2-yl)carbonyl-2,3-dihydrobenzothiophene 1,1-dioxide]	5 (90% or higher (almost completely dead))	5 (90% or higher (almost completely dead))	0	0	4 (70% or higher but less than 90%)	5 (90% or higher (almost completely dead))
CSC1Cc2c(ccc(C(=O)C3=C(Cl)CCCC3=O)c2Cl)S1(=O)=O (stereo not drawn) [Compound No. 17, 4-chloro-2-methylthio-5-(3-chloro-1-oxo-2-cyclohexen-2-yl)carbonyl-2,3-dihydrobenzothiophene 1,1-dioxide]	5 (90% or higher (almost completely dead))	5 (90% or higher (almost completely dead))	0	0	5 (90% or higher (almost completely dead))	5 (90% or higher (almost completely dead))
CS(=O)(=O)C1Cc2c(ccc(C(=O)C3=C(Cl)CCCC3=O)c2Cl)S1(=O)=O (stereo not drawn) [Compound No. 18, 4-chloro-2-methanesulfonyl-5-(3-chloro-1-oxo-2-cyclohexen-2-yl)carbonyl-2,3-dihydrobenzothiophene 1,1-dioxide]	4 (70% or higher but less than 90%)	5 (90% or higher (almost completely dead))	0	0	4 (70% or higher but less than 90%)	5 (90% or higher (almost completely dead))
CCSC1Cc2c(ccc(C(=O)C3=C(Cl)CCCC3=O)c2Cl)S1(=O)=O (stereo not drawn) [Compound No. 19, 4-chloro-2-ethylthio-5-(3-chloro-1-oxo-2-cyclohexen-2-yl)carbonyl-2,3-dihydrobenzothiophene 1,1-dioxide]	5 (90% or higher (almost completely dead))	5 (90% or higher (almost completely dead))	0	0	4 (70% or higher but less than 90%)	5 (90% or higher (almost completely dead))
COCCSC1Cc2c(ccc(C(=O)C3=C(Cl)CCCC3=O)c2Cl)S1(=O)=O (stereo not drawn) [Compound No. 25, 4-chloro-2-(2-methoxyethyl)thio-5-(3-chloro-1-oxo-2-cyclohexen-2-yl)carbonyl-2,3-dihydrobenzothiophene 1,1-dioxide]	4 (70% or higher but less than 90%)	5 (90% or higher (almost completely dead))	0	0	4 (70% or higher but less than 90%)	5 (90% or higher (almost completely dead))
COC(=O)CSC1Cc2c(ccc(C(=O)C3=C(Cl)CCCC3=O)c2Cl)S1(=O)=O (stereo not drawn) [Compound No. 27, 4-chloro-2-(methoxycarbonylmethyl)thio-5-(3-chloro-1-oxo-2-cyclohexen-2-yl)carbonyl-2,3-dihydrobenzothiophene 1,1-dioxide]	4 (70% or higher but less than 90%)	5 (90% or higher (almost completely dead))	0	0	4 (70% or higher but less than 90%)	5 (90% or higher (almost completely dead))
CSC1Cc2c(ccc(C(=O)C3=C(SCCO)CCCC3=O)c2Cl)S1(=O)=O (stereo not drawn) [Compound No. 31, 4-chloro-2-methylthio-5-[3-(2-hydroxyethyl)thio-1-oxo-2-cyclohexen-2-yl]carbonyl-2,3-dihydrobenzothiophene 1,1-dioxide]	5 (90% or higher (almost completely dead))	5 (90% or higher (almost completely dead))	0	0	5 (90% or higher (almost completely dead))	5 (90% or higher (almost completely dead))
CSC1Cc2c(ccc(C(=O)C3=C(SCC(C)O)CCCC3=O)c2Cl)S1(=O)=O (stereo not drawn) [Compound No. 33, 4-chloro-2-methylthio-5-[3-(2-hydroxy-1-propyl)thio-1-oxo-2-cyclohexen-2-yl]carbonyl-2,3-dihydrobenzothiophene 1,1-dioxide]	4 (70% or higher but less than 90%)	5 (90% or higher (almost completely dead))	0	0	4 (70% or higher but less than 90%)	5 (90% or higher (almost completely dead))

Reference: patent US20040058957A1, “Benzothiophene derivatives and herbicidal compositions containing the same” (priority 2000, published 2004)
